Test results reported in article PMC6269433, “Biocatalytic production of adiponitrile and related aliphatic linear α,ω-dinitriles” (Nature Communications, 2018).

Tests used:
Assay type in all cases: cell-based
OxdA [1] = target: T1, OxdA (Pseudomonas chlororaphis, UniProt Q7WSJ4); assay: whole-cell dehydration to adiponitrile, GC; conditions: E. coli resting cells, 50 mM potassium phosphate pH 7.0, 30 °C, argon, with or without 20% DMSO; activity only per bio wet weight
T1 construct: recombinant in E. coli, resting whole cells; plasmid details only in supplement; ferrous heme enzyme
T1 sequence (Q7WSJ4 1-352): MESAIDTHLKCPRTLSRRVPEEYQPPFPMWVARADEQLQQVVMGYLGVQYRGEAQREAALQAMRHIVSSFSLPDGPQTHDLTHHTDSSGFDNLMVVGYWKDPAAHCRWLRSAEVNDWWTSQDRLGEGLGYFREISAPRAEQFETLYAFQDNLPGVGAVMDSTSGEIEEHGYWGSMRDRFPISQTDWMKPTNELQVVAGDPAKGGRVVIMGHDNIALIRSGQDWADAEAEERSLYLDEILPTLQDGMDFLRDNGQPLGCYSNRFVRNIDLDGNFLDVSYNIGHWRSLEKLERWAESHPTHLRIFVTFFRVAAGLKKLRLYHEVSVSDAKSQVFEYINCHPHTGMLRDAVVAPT

OxdB [2] = target: T2, OxdB (Bacillus sp. OxB-1, UniProt P82604); assay: whole-cell dehydration to adiponitrile, GC; conditions: E. coli resting cells, 50 mM potassium phosphate pH 7.0, 30 °C, argon, with or without 20% DMSO; activity only per bio wet weight
T2 construct: gene oxd; recombinant in E. coli, resting whole cells; plasmid details only in supplement; ferrous heme enzyme
T2 sequence (P82604 2-351): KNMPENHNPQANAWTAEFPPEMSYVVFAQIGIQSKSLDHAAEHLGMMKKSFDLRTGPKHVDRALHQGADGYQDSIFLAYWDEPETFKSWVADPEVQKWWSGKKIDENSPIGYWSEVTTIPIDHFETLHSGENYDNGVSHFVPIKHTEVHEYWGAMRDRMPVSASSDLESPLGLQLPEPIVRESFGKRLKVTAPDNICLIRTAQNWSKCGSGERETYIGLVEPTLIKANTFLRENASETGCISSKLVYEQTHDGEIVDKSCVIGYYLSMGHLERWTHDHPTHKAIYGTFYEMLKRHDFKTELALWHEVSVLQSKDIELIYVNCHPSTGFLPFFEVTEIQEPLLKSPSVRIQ

OxdA [3] = target: T1, OxdA; assay: whole-cell dehydration to the dinitrile, analytical scale; conditions: E. coli resting cells; substrate 3.0-75 mM range; activity only per bio wet weight
OxdB [4] = target: T2, OxdB; assay: as above; conditions: E. coli resting cells; substrate 3.0-75 mM range; activity only per bio wet weight

Compound	whole-cell dehydration to adiponitrile, GC (OxdA [1])	whole-cell dehydration to adiponitrile, GC (OxdB [2])	whole-cell dehydration to the dinitrile, analytical scale (OxdA [3])	whole-cell dehydration to the dinitrile, analytical scale (OxdB [4])
ON=CCCCCC=NO [1d, adipaldehyde dioxime]	the C6-C10-dialdoximes (1d-h) were converted by both Oxds completely with excellent efficiency	the C6-C10-dialdoximes (1d-h) were converted by both Oxds completely with excellent efficiency		
ON=CCCCCCCC=NO [1f, C8-dialdoxime]			the C6-C10-dialdoximes (1d-h) were converted by both Oxds completely with excellent efficiency	the C6-C10-dialdoximes (1d-h) were converted by both Oxds completely with excellent efficiency
